Measured values from patent US8652785B2, “Method of screening a modulator of endothelial NO synthase comprising the use of heme binding protein 1” (Sanofi, priority 2008, dated 2014).

Experiments:
[1] = system: HEBP1_predicted mRNA; assay: HEBP1_predicted expression in cardiac tissue of rats with chronic heart failure after myocardial infarction; assay type: in vivo; settings: 10 mg/kg/day for 9 weeks, versus placebo, mRNA relative to GAPDH
Protocol: Rats were divided in three groups. One group was sham-operated (group 1), whereas in groups 2 and 3 chronic heart failure was induced by myocardial infarction. Only, the latter group was treated with AVE3085 (10 mg/(kg day)) for 9 weeks. Thereafter, mRNA expression (HEBP1 in comparison to GAPDH) was determined in heart tissue. Means±SD of 7 experiments are shown, * p<0.05 vs. sham operated.
In another context, an animal study was conducted, in which rats developed chronic heart failure after an induced myocardial infarction. From available RNA samples from cardiac tissue it was possible to determine the expression of HEBP1_predicted at the mRNA level. […]
Isolation of RNA from the cell types used was carried out using the RNeasy® mini-isolation method. […] The concentration and purity of the prepared RNA were determined using a NanoDrop® ND-1000 spectrophotometer (NanoDrop Technologies Inc., Wilmington, USA). In this, from a total volume of 2 μl, the absorption of the samples was measured at a wavelength of λ=260 nm (A260) for nucleic acids. Conversion of the measured absorption to the concentration of the RNA solution was carried out by means of the extinction coefficient of 40 ng×cm^−1×μl^−1 on the basis of the Lambert-Beer law. […] The RNA obtained was then diluted in the ratio 1:5 and either used immediately in a quantitative RT-PCR or stored at −80° C. for future use. […]

[2] = system: eNOS promoter; assay: eNOS-transcription test after siRNA transfection of EA.csr03 cells; assay type: cell-based, human
Protocol: For liposomal transfection of siRNA in endothelial cells, EA.hy926 or EA.csr03 cells were sown with a density of 50 000 cells per well in a volume of 100 μl growth medium in 96-well plates. After incubation for 24 h in an incubator, the cells were washed with sterile DPBS and were covered in each case with 100 μl/well of serum-free and antibiotic-free special medium Opti-MEM® I. Then the siRNAs (see below) used were preincubated with Lipofectamine™ 2000 in accordance with the manufacturer's instructions and finally 50 μl/well of the transfection mixture was added to the cells. Unless stated otherwise, the siRNAs were used at final concentrations of 100 nM. Per well, after previous optimization, 0.8 μl of Lipofectamine™ 2000 was used for transfection of the EA.hy926 cells, and 0.5 μl for the EA.csr03 cells. After the cells had been incubated in an incubator for 6 hours, the transfection medium was replaced with normal growth medium and the next experimental steps were carried out in the time frame of 24-72 hours after transfection. Primary HUVECs were sown at 100 000 cells per well in Collagen I-coated 6-well plates and were cultivated in normal growth medium up to 60-70% confluence. Prior to transfection, the cells were washed with sterile DPBS and covered in each case with 800 μl/well of serum-free and antibiotic-free special medium Opti-MEM® I. 6 μl Lipofectin® and siRNA at a final concentration of 100 nM were used per well. […]
The survey of the efficiencies of different siRNAs to the target proteins were tested. The respective residual mRNA was determined by quantitative RT-PCR, 24 hours after transfection of human endothelial cells (EA.hy926/EA.csr03). […] After cell lysis, the luciferase activity and the total cellular protein content were determined.
For transcription test for eNOS promoter activation, 20 000 cells per well of the reporter cell line EA.csr03 were sown in a white 96-well cell culture plate. […] The light units released were measured in the Genios microplate reader from Tecan Deutschland (Crailsheim, Germany). […]

[3] = system: eNOS promoter; assay: eNOS-transcription test (eNOS-promoter luciferase reporter cell line EA.csr03); assay type: cell-based; settings: Homo sapiens; EA.csr03 cells, nonlinear regression; read-out: EC50 in the eNOS-transcription test
Protocol: The EA.csr03 cells are cells of a stable eNOS-promoter luciferase cell line. It was obtained by transfection of EA.hy926 cells with a firefly luciferase reporter construct, with a 3.5 kb fragment of the eNOS-promoter added. Cultivation of these cells was carried out with IMDM with GlutaMAX™ I supplemented with 100 U/ml penicillin, 100 μg/ml streptomycin, 10% FCS and 0.4 mg/ml geneticin as selection antibiotic. The EA.hy926 cells are a stable human cell line, which was obtained by fusion of HUVEC with the human […] cell line A549. This cell line is characterized by expression of specific endothelial cell markers, e.g. the “van-Willebrand factor”. The cells used are an original culture of Cora Jean Edgell of passage 32. The cells were cultivated in IMDM with GlutaMAX™ I supplemented with 100 U/ml penicillin, 100 μg/ml streptomycin, HAT Hybri-Max™ medium additive (hypoxanthine, aminopterin and thymidine) and Biotect protective medium.
For transcription test for eNOS promoter activation, 20 000 cells per well of the reporter cell line EA.csr03 were sown in a white 96-well cell culture plate. After 24 hours, various dilutions of the substance in cell culture medium were prepared starting from DMSO stock solutions and were preincubated for 10 min at 37° C. on a water bath. Then these incubation media (100 μl/well) were added to the cells. After incubation for 18 hours, the cells were washed twice with DPBS (100 μl/well) and luciferase lysis buffer (50 μl/well) was added. After 10 min, the solubilized luciferase-substrate luciferin (100 μl/well) was added to the cell lysates. During the luciferase-catalyzed oxidation of luciferin to oxyluciferin there is release of chemiluminescence. […] The light units released were measured in the Genios microplate reader from Tecan Deutschland (Crailsheim, Germany).

With `O=C(NC1Cc2ccccc2C1)c1ccc2c(c1)OC(F)(F)O2` [AVE3085] the “influence of treatment on expression of HEBP1_predicted in heart” value [1] was “did not show any influence at all”, the “induction of the eNOS promoter versus DMSO-control, HEBP1 switched off using siHEBP1 25” value ([2]; AVE3085 5 μM, 18 h, siHEBP1 25) was 1.6 factor and the “induction of the eNOS promoter versus DMSO-control, siLV2-treated control cells” value ([2]; AVE3085 5 μM, 18 h, siLV2-control) was 2.4 factor. The “reduction of eNOS-promoter activation by AVE3085 after switching-off of HEBP1 by siRNA versus siLV2-control” value ([2]; HEBP1 siRNA) was 64% and the EC50 [3] was 400 nM.
